{
  "source": "paper PMC13245873",
  "about": "“Uridine cytidine kinases govern molnupiravir bioactivation and anti-SARS-CoV-2 activity” (PLOS Pathogens, 2026)",
  "molecules": {"B1": {"name": "UCK2 (Homo sapiens) (protein)", "chain": "AGDSEQTLQNHQQPNGGEPFLIGVSGGTASGKSSVCAKIVQLLGQNEVDYRQKQVVILSQDSFYRVLTSEQKAKALKGQFNFDHPDAFDNELILKTLKEITEGKTVQIPVYDFVSHSRKEETVTVYPADVVLFEGILAFYSQEVRDLFQMKLFVDTDADTRLSRRVLRDISERGRDLEQILSQYITFVKPAFEEFCLPTKKYADVIIPRGADNLVAINLIVQHIQDILNGGPSKRQTNGCLNGYTPSRKRQASESSSRPH", "notes": "recombinant, C-terminal His tag"}, "B2": {"name": "human UCK1 construct (amino acids 21–235) (enzyme, UniProt Q9HA47 21-235, looked up)", "chain": "QRPFLIGVSGGTASGKSTVCEKIMELLGQNEVEQRQRKVVILSQDRFYKVLTAEQKAKALKGQYNFDHPDAFDNDLMHRTLKNIVEGKTVEVPTYDFVTHSRLPETTVVYPADVVLFEGILVFYSQEIRDMFHLRLFVDTDSDVRLSRRVLRDVRRGRDLEQILTQYTTFVKPAFEEFCLPTKKYADVIIPRGVDNMVAINLIVQHIQDILNGDI", "notes": "uridine cytidine kinase 1 (UCK1), human, residues 21-235; cDNA optimized for expression in E. coli, in pET24a(+); Tetramer by gel filtration and in the crystal's asymmetric unit; also called hUCK1; uridine cytidine kinase 1; source: E. coli BL21 (DE3), purified (IMAC, SEC)"}},
  "key": {"[1]": {"molecular_target": "T1, UCK1 (Homo sapiens, UniProt Q9HA47)", "T1 construct": "amino acids 21–235, N-terminal His tag", "T1 sequence (Q9HA47 21-235)": "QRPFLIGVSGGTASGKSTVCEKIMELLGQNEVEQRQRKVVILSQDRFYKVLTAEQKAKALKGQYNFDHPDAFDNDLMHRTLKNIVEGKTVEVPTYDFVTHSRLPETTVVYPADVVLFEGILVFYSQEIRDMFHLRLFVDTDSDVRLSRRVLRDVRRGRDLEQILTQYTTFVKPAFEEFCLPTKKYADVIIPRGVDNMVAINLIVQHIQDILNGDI", "assay": "X-ray co-crystal structure ([…] Å, with NHC)", "format": "binding"}, "[2]": {"molecular_target": "T2, UCK2 (Homo sapiens, UniProt Q9BZX2)", "T2 construct": "recombinant, C-terminal His tag", "T2 sequence (Q9BZX2 2-261)": "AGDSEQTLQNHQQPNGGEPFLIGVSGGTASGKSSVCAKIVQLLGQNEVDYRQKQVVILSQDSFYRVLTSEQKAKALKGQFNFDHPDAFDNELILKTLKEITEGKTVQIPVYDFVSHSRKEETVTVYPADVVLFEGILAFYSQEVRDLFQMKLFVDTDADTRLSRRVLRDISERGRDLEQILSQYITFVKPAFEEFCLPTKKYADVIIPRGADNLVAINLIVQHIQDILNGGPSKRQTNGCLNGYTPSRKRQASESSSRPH", "assay": "ADP-Glo-coupled kinase kinetics (kcat/Km); DSF dose-response", "format": "biochemical"}, "[3]": {"molecular_target": "T3, UCK1 (Homo sapiens, UniProt Q9HA47)", "T3 construct": "recombinant, N-terminal His tag", "T3 sequence (Q9HA47 1-277)": "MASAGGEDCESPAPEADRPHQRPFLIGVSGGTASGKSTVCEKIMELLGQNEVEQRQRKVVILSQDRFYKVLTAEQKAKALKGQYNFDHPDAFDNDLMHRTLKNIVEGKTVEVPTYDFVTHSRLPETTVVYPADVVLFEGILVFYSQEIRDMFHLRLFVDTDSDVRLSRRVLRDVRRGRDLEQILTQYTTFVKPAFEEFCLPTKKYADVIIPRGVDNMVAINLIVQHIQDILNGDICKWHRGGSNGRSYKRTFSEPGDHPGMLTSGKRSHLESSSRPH", "assay": "ADP-Glo-coupled kinase kinetics; DSF dose-response", "format": "biochemical"}, "[4]": {"substrate": "O=c1nc(NO)ccn1[C@@H]1O[C@H](CO)[C@@H](O)[C@H]1O", "assay": "ADP-Glo-coupled kinase kinetics (Km); DSF dose-response", "format": "biochemical, Homo sapiens", "settings": "ATP, Mg2+", "source_text": "ADP-Glo-coupled kinase kinetics (Km); DSF dose-response on UCK2 | NHC was a substrate for both UCK1 and UCK2"}, "[5]": {"molecular_target": "the molecule itself", "assay": "SEC; gel filtration of purified recombinant UCK1 (amino acids 21–235) on a Superdex200 increase 10/300 GL column; single peak"}, "[6]": {"substrate": "O=c1nc(NO)ccn1[C@@H]1O[C@H](CO)[C@@H](O)[C@H]1O", "assay": "purified protein", "format": "binding, Homo sapiens", "settings": "AMPPNP (ATP site) and Mg2+ active site; π-stacking with F86 and F117; H-bonds with D65, D87, Y115, H120, R160 and the ATP gamma-phosphate"}},
  "data": [
    {"molecule": "Nc1ncnc2c1ncn2[C@@H]1O[C@H](CO[P@](=O)(O)O[P@](=O)(O)NP(=O)(O)O)[C@@H](O)[C@H]1O", "note": "[AMPPNP, adenosine 5’-(β,γ-imido)triphosphate]", "values": [
      {"measurement": "X-ray co-crystal structure (2.40 Å, with NHC)", "setting": "[1]", "result": "AMPPNP binds in a pocket closer to the surface, and is positioned by H-bonds between the phosphate group and residues"}
    ]},
    {"molecule": "Nc1ccn([C@@H]2O[C@H](CO)[C@@H](O)[C@H]2O)c(=O)n1", "note": "[C, cytidine]", "values": [
      {"measurement": "ADP-Glo-coupled kinase kinetics (kcat/Km); DSF dose-response", "setting": "[2]", "result": 56666.7, "unit": "M⁻¹ s⁻¹"},
      {"measurement": "ADP-Glo-coupled kinase kinetics; DSF dose-response", "setting": "[3]", "result": "Using cytidine as the substrate, the ADP-Glo-coupled kinase activity assay produced kinetic parameters"}
    ]},
    {"molecule": "B1", "values": [
      {"measurement": "Km", "setting": "[4]", "result": "260 ± 70", "unit": "µM"}
    ]},
    {"molecule": "B2", "values": [
      {"measurement": "stoichiometry N", "setting": "[5]", "result": 4},
      {"measurement": "Km", "setting": "[6]", "result": "1140 ± 320", "unit": "µM"}
    ]}
  ]
}
